Earlier results in patent US20060024806A1, “Mycolactone locus: an assembly line for producing novel polyketides, therapeutic and prophylactic uses” (priority 2003, published 2006).

Test system: guinea pig model of the disease
Conditions: purified mycolactone injected subcutaneously

CC(=C\C=C\C(C)=C\[C@H](O)[C@@H](O)C[C@H](C)O)/C=C(C)/C=C/C(=O)O[C@H]1CCCC(=O)O[C@@H]([C@@H](C)C/C(C)=C/[C@@H](C)[C@H](O)C[C@@H](C)O)C/C=C(\C)C[C@@H]1C [mycolactone]
pathology after injection: reproduces the natural pathology
